What was measured:
[1] = tested on: MiaPaCa2 (pancreatic) cells; assay: SRB growth inhibition assay, MiaPaCa2; assay type: cell-based, human
Description: (§1) Human cancer cell lines, MCF7 (breast), A549 (lung), Mia-PaCa2, PANC1 and HPAC (pancreatic), RCC4 and 786-0 renal, and the somatic human cell line WI-38 (lung fibroblast) were purchased from ATCC. Cell lines were maintained in appropriate medium supplemented with 10% foetal bovine serum (Invitrogen, UK), 2 mM L-glutamine (Invitrogen, Netherlands), and other components as specified by the suppliers. Cell lines were maintained at 37° C., 5% CO2 and routinely passaged. Drugs were dissolved in DMSO and filtered through 0.22 μm pore-size filter units before addition to cell line appropriate media. Cellular growth inhibition was measured using the sulforhodamine B (SRB) assay in 96 well plates as described previously.^1,2 Fifty percent inhibitory concentrations (IC50) were determined by taking the mean absorbance at 540 nm for each drug concentration expressed as a percentage of the absorbance of untreated control wells.
(§2) The anti-proliferative activity of the group of nine ND derivatives was assessed using the SRB assay following 96 h exposure to 2-fold serial dilutions of each compound (Table 2) in a panel of cancer cell lines together with a normal fibroblast line. […] In contrast the morpholine compounds all show sub-μM anti-proliferative activity in at least some of the cancer cell lines used and the two compounds 3d, 3h with n=3 —(CH2)n— linkers to the morpholine groups, show particularly potent activity in the Mia-PaCa2 and PANC1 pancreatic carcinoma and A549 lung adenocarcinoma cell lines (IC50 values of 10-20 nM).
Dose-response curves were used to guide the choice of compound concentration and time-points for the array experiments (FIG. 2a). […] To explore this response continuum the transcriptional signature of cells exposed for 24 h to 20 nM, 40 nM, 80 nM concentrations of 3d, or solvent alone as control, was analysed as described in Materials and Methods.
(§3) Next a series of structural isomers were tested.

A549 (lung) cells = assay: SRB growth inhibition assay, 96 hr exposure, A549; assay type: cell-based, human; settings: Homo sapiens, A549, 96 h exposure
Description: as §1, §2, §3

Panc1 (pancreatic) cells = assay: SRB growth inhibition assay, 96 hr exposure, Panc1; assay type: cell-based, human; settings: Homo sapiens, PANC-1, 96 h exposure
Description: as §1, §2, §3

[2] = tested on: 83 human genes involved in DNA damage signaling responses in Mia-PaCa2 cells; assay: qPCR array, DNA damage signaling response genes; assay type: cell-based; settings: Mia-PaCa2 cells, data not shown
Description: Following compound exposure, cells were washed twice in PBS, harvested by trypsinisation, collected by centrifugation (300 g, 5 min, 4° C.) and re-suspended in RLT buffer (Qiagen). Samples were homogenised using QIAshredder spin columns and stored at −80° C. prior to RNA extraction. Three biological replicates were performed on separate days.
The expression of (i) 83 key human genes involved in telomere replication and maintenance, and (ii) 83 human genes involved in DNA damage signaling responses, was assessed using PCR arrays (SABiosciences). Total RNA was extracted from approximately 1×10^7 Mia-PaCa2 cells treated for 24 h with compound 3d, using the RNeasy kit (Qiagen) with on-column DNaseI treatment to remove residual genomic DNA. The quality of the harvested RNA was confirmed by nanodrop spectroscopy and by analysis with a Human RT^2 RNA QC PCR Array. First-strand cDNA synthesis was performed with the RT^2 first strand kit and qPCR was carried out using the RT^2 qPCR master mix (Qiagen) using 0.5 μg total RNA per array plate in a Stratagene MX-3000P instrument (Agilent, USA). Relative gene expression was determined by the ΔΔCT method using the web-based RT^2 Profiler™ PCR Array Data Analysis software (SABiosciences). Data were normalized to the geometric mean of five housekeeping genes (RPLP10, β-actin, B2M, GAPDH and HPRT1).
Various quadruplex-stabilising agents are known to induce pronounced DNA damage responses. We therefore next assessed the effect of 3d on the transcription of genes associated with DNA damage response and repair pathways. For these pathways the effect of a cytotoxic dosage of 3d (160 nM) on Mia-PaCa2 cells was also tested to assess the correlation between compound-induced DNA damage and cell killing. […] The latter two groups appeared to reflect a dynamic switch in the cellular response from low-level growth inhibition up to 40 nM of 3d to cytostatic then cytotoxic effects at 80 nM and 160 nM respectively.
Instead the response was dominated by genes with roles in growth arrest and more general stress responses.

telomerase = assay: TRAP-LIG cellular telomerase activity assay; assay type: cell-based, human; settings: at the doses relevant to the IC50 values
Description: FIG. 1. Gel showing telomerase activity in MIA-Pa-Ca-2 cells treated with compound 3h after seven days of treatment. Lane 1; untreated cells, lanes 2-4; cells treated increasing concentrations of 3h. Telomerase activity was assessed using the TRAP-LIG assay as described in Materials and Methods. Compound concentrations are indicated. Neg; untreated cells, Pos; positive control. Neg: negative control with telomerase but no ligand.
Telomerase activity was determined using the TRAP-LIG assay, a modified telomere repeat amplification protocol that ensures that there is no carry-over of ligand into the second PCR step of the assay. Briefly, 1 μg of protein from untreated and treated cells were incubated with TS forward primer (0.1 μg of 5′-AAT CCG TCG AGC AGA GTT-3′) at 30° C. for 10 min to allow the initial elongation to take place. Elongated products were purified using the QIAquick nucleotide purification kit (Qiagen) according to the manufacturer's instructions. Eluted samples were freeze-dried and re-dissolved in PCR grade water. Re-dissolved PCR products were subjected to amplification in master mix containing ACX reverse primer (1 μM, 5′-GCG CGG [CTTACC]3 CTA ACC-3′), TS forward primer (0.1 μg), TRAP buffer, BSA (5 μg), 0.5 mM dNTPs, and 2U RedHot TAQ polymerase (ABgene, U.K.) for 35 cycles of 94° C. for 30 s, 61° C. for 1 min, and at 72° C. for 1 min. […]

786-O (renal) cells = assay: SRB growth inhibition assay, 96 hr exposure, 786-O; assay type: cell-based, human; settings: versus other lines of the panel
Description: as §1, §2, §3

[3] = tested on: human telomeric G-quadruplex DNA (F21T); assay: FRET melting assay, human telomeric quadruplex; assay type: binding; settings: FRET melting
Excerpt: The ability of the naphthalene diimide compounds to stabilize DNA sequences was investigated using a fluorescence resonance energy transfer (FRET) assay modified to be used as a high-throughput screen in a 96-well format. Several quadruplex sequences were studied (the human telomeric G-quadruplex DNA sequence 5′-FAM-d(GGG[TTAGGG]3)-TAMRA-3′ and the duplex sequence 5′-FAM-dTATAGCTATA-HEG-TATAGCTATA-TAMRA-3′ (HEG linker: [(—CH2—CH2—O—)6])), as well as two overlapping sequences from the HSP90 promoter region (HSP90a and HSP90b):
The labelled oligonucleotides have attached to them the donor fluorophore FAM: 6-carboxyfluorescein and the acceptor fluorophore TAMRA: 6-carboxytetramethylrhodamine. The FRET probe sequences were diluted from stock to the correct concentration (400 nM) in a 60 mM potassium cacodylate buffer (pH 7.4) and then annealed by heating to 85° C. for 10 min, followed by cooling to room temperature in the heating block. The compound was stored as a 10 mM stock solution in DMSO; final solutions (at 2×concentration) were prepared using 10 mM HCl in the initial 1:10 dilution, after which 60 mM potassium cacodylate buffer (pH 7.4) was used in all subsequent steps. The maximum HCl concentration in the reaction volume (at a ligand concentration of 20 μM) is thus 200 μM, well within the range of the buffer used. Relevant controls were also performed to check for interference with the assay. 96-Well plates (MJ Research, Waltham, Mass.) were prepared by aliquoting 50 μl of the annealed DNA into each well, followed by 50 μl of the compound solutions. Measurements were made on a DNA Engine Opticon (MJ Research) with excitation at 450-495 nm and detection at 515-545 nm. Fluorescence readings were taken at intervals of 0.5° C. in the range 30-100° C., with a constant temperature being maintained for 30 s prior to each reading to ensure a stable value. Final analysis of the data was carried out using a script written in the program Origin 7.0 (OriginLab Corp., Northampton, Mass.). The advanced curve-fitting function in Origin 7.0 was used for calculation of ΔTm values. All determinations were performed in triplicate or better. Esds in ΔTm are ±0.1° C.
The ability of compounds 3a-h to stabilize a human telomeric quadruplex was assessed by a high-throughput FRET (Fluorescence Resonance Energy Transfer) melting technique. […] None of the furan tetrahydrofuran, pyranose or acyclic ether compounds has any effect on quadruplex or duplex stability.
The T-loop sequence represents duplex DNA.

[4] = tested on: panel of cancer cell lines; assay: SRB assay, panel of cancer cell lines and normal fibroblast line; assay type: cell-based, human; settings: Homo sapiens, Fibroblast, 96 h exposure, read-out: IC50 values across the cell line panel
Description: as §1, §2

Mia-PaCa2 cells = assay: Senescence β-galactosidase staining; assay type: cell-based, human; settings: 7 days treatment
Description: FIG. 4. Micrographs showing the results of staining for evidence of cellular senescence in MiaPaCa2 cells using the β-galactosidase assay. Senescent cells are coloured blue in this procedure. Staining was performed after seven days treatments with (a) vehicle control, ×100 magnification, (b) 3.3 nM of compound 3d, ×200 magnification, (c) 6.6 nM of compound 3d, ×200 magnification, (d) 50 nM of compound 4, ×200 magnification, (e) plot of the percentage of senescent cells at the indicated concentrations of compounds 3d and 4, compared to the background senescence in this cell line (with vehicle control only). Cell counts were performed in triplicate and error bars represent estimated standard deviations.
Senescence detection and quantification experiments were carried out using the Senescence β-galactosidase staining kit (Cell Signalling Technology, MA, USA) according to the manufacturer's protocol. Briefly, 1×10^5 cells were seeded in 6-well plates in 2 ml of medium supplemented with the test compound and incubated for 24 h. Cells were washed (2 ml PBS), fixed (2% formaldehyde and 2% glutaraldehyde in PBS, 15 min, room temperature) and washed (2×2 ml PBS) before staining overnight. Senescent cells, detected by their blue pigmentation, were counted using a light microscope.
CDKN1A encodes the cyclin-dependent kinase p21WAF1 that induces replicative senescence, which is a well-studied consequence of telomerase inhibition and telomere maintenance disruption. […] Compounds 3b and 3d behaved in a similar manner to each other, with concentrations of 3-4 nM being sufficient to result in ˜50-60% of cells becoming senescent after this time-course.

In the case of `CN1CCN(CCNc2cc3c4c(c(NCCN5CCN(C)CC5)cc5c4c2C(=O)N(CCCN2CCOCC2)C5=O)C(=O)N(CCCN2CCOCC2)C3=O)CC1` [Compound 3h, 4,9-bis((2-(4-methylpiperazin-1-yl)ethyl)amino)-2,7-bis(3-morpholinopropyl)benzo[lmn][3,8]phenanthroline-1,3,6,8(2H,7H)-tetraone], the “selectivity for Mia-PaCa2 compared to the normal fibroblast line WI-38” value [1] is reported as ~200 fold, the IC50 ([1]; Homo sapiens, MIA PaCa-2, SRB assay, 96 h exposure, read-out: IC50 Mia-PaCa2) is reported as 10 to 20 nM and the IC50 (A549 (lung) cells) is reported as 10 to 20 nM. The IC50 (Panc1 (pancreatic) cells) was 10 to 20 nM, the “induction of γ-H2AX” value [2] was “do not appear to induce these particular changes” and the telomerase activity inhibition (telomerase) was “not inhibitors of telomerase activity”.

With `CN1CCN(CCCNc2cc3c4c(c(NCCCN5CCN(C)CC5)cc5c4c2C(=O)N(CC2CCOCC2)C5=O)C(=O)N(CC2CCOCC2)C3=O)CC1` [Compound 3c, 4,9-bis((3-(4-methylpiperazin-1-yl)propyl)amino)-2,7-bis((tetrahydro-2H-pyran-4-yl)methyl)benzo[lmn][3,8]phenanthroline-1,3,6,8(2H,7H)-tetraone] the “selectivity for the renal carcinoma cell line 786-0” value (786-O (renal) cells) was “up to 10 fold”, the “telomeric quadruplex stabilization (in words)” value [3] was “low level of quadruplex binding” and the IC50 [4] was 1000 to 8000 nM.

With `CN1CCN(CCCNc2cc3c4c(c(NCCCN5CCN(C)CC5)cc5c4c2C(=O)N(CCCN2CCN(C)CC2)C5=O)C(=O)N(CCCN2CCN(C)CC2)C3=O)CC1` [Compound 4, reference compound] the “induction of senescence (in words)” value (Mia-PaCa2 cells) was “strong induction of senescence”.

From patent US9493460B2, “Diimide compounds” (UCL BUSINESS PLC, priority 2013, dated 2016)
